Assay type in all cases: biochemical
The target of one assay is T1, MMP-2 (Homo sapiens, UniProt P08253).
T1 construct: purchased R&D Systems 902-MP
T1 sequence (P08253 110-660): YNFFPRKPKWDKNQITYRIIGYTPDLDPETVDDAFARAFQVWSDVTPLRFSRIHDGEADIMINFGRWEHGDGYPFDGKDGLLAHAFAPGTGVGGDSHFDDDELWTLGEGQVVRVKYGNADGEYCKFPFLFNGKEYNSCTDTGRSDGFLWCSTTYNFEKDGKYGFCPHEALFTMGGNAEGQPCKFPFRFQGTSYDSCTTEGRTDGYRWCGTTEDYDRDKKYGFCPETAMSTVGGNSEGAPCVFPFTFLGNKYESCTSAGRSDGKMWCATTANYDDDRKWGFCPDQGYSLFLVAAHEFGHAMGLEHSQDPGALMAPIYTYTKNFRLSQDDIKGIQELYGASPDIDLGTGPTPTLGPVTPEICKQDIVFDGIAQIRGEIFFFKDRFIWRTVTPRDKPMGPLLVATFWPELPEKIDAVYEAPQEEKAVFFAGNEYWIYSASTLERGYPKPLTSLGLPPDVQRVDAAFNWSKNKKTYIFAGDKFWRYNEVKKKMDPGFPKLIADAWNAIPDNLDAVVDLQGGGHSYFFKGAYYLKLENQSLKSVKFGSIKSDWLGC
In words: In vitro MMP-2 inhibition test. To be noted: human MMP-2. From the text:
(§1) The MMP-mediated amidolytic cleavage of a suitable peptide substrate leads to an increase in fluorescent light here too. The signal intensity of the fluorescent light is directly proportional to the enzyme activity. The active concentration of a test compound at which half the enzyme is inhibited (50% signal intensity of the fluorescent light) is reported as the IC50 value.
(§2) Recombinant MMP-2 (R&D Systems, 902-MP) is chemically activated in accordance with the manufacturer's instructions using APMA. 1 μl of the test compound to be analysed (as a solution in DMSO, suitable concentrations e.g. 1 nM to 30 μM) is pipetted into 24 μl of activated enzyme (final concentration e.g. 2 nM) in reaction buffer (50 mM Tris/HCl pH 7.5, 10 mM CaCl2, 150 mM NaCl, 0.05% Brij®-35) in a white 384-hole microtiter plate (MTP). The enzymatic reaction is started by adding the intramolecularly quenched Mca-Pro-Leu-Gly-Leu-Dpa(Dnp)-Ala-Arg-NH2 substrate (final concentration e.g. 10 μM; R&D Systems, ES-001), so as to result in a total test volume of 50 μl. The course of the MMP-2 reaction is measured by measuring the fluorescence intensity (excitation 320 nm, emission 410 nm) over a suitable period of time (e.g. over 120 min at a temperature of 32° C.).

A further assay has as its target T2, MMP-13 (Homo sapiens, UniProt P45452).
T2 construct: purchased R&D Systems 511-MP
The assay is described as follows: In vitro MMP-13 inhibition test. The note with it: human MMP-13.
Source text: as §1
as §2, with “Recombinant MMP-13” for “Recombinant MMP-2”, “Systems, 511-MP)” for “Systems, 902-MP)”, “e.g. 0.1” for “e.g. 2”, “the MMP-13” for “the MMP-2”

The next assay deals with T3, MMP-14 (Homo sapiens, UniProt P50281).
T3 construct: purchased R&D Systems 918-MP
The assay is described as follows: In vitro MMP-14 inhibition test. The note with it: human MMP-14.
Source text: as §1
Recombinant MMP-14 (R&D Systems, 918-MP) is enzymatically activated in accordance with the manufacturer's instructions using recombinant furin (R&D Systems, 1503-SE). 1 μl of the test compound to be analysed (as a solution in DMSO, suitable concentrations e.g. 1 nM to 30 μM) is pipetted into 24 μl of activated enzyme (final concentration e.g. 0.5 nM) in reaction buffer (50 mM Tris/HCl pH 7.5, 10 mM CaCl2, 150 mM NaCl, 0.05% Brij®-35) in a white 384-hole microtiter plate (MTP). The enzymatic reaction is started by adding the intramolecularly quenched Mca-Lys-Pro-Leu-Gly-Leu-Dpa(Dnp)-Ala-Arg-NH2 substrate (final concentration e.g. 5 μM; R&D Systems, ES-010), so as to result in a total test volume of 50 μl. The course of the MMP-14 reaction is measured by measuring the fluorescence intensity (excitation 320 nm, emission 410 nm) over a suitable period of time (e.g. over 120 min at a temperature of 32° C.).

Another assay deals with T4, MMP-8 (Homo sapiens, UniProt P22894).
T4 construct: purchased R&D Systems 908-MP
T4 sequence (P22894 101-467): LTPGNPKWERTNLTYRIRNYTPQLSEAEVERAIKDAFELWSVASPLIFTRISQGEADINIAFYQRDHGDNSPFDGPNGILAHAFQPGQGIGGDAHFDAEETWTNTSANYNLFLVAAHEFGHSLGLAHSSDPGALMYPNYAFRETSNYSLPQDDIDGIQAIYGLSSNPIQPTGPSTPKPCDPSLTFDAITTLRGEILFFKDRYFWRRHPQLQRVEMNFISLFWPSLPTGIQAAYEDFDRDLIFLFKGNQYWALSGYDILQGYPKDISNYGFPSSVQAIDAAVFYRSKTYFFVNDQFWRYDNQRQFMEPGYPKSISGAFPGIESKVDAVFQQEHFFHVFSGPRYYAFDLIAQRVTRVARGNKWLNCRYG
The assay is described as follows: In vitro MMP-8 inhibition test. The note with it: human MMP-8.
Source text: as §1
as §2, with “Recombinant MMP-8” for “Recombinant MMP-2”, “Systems, 908-MP)” for “Systems, 902-MP)”, “e.g. 0.5” for “e.g. 2”, “the MMP-8” for “the MMP-2”

These results are taken from patent publication US20170121315A1, “HETEROBICYCLICALLY SUBSTITUTED 4-OXOBUTANE ACID DERIVATIVES AND USE THEREOF” (priority 2014, published 2017).

For `O=C(CC(CCn1nnc2ccccc2c1=O)C(=O)O)c1cc2cc(OCCc3ccc(Cl)cc3)ccc2o1` (racemic) [Example 2, (+/−)-4-{5-[2-(4-Chlorophenyl)ethoxy]-1-benzofur-2-yl}-4-oxo-2-[2-(4-oxo-1,2,3-benzotriazin-3(4H)-yl)ethyl]butanoic acid], the half-maximal inhibitory concentration (IC50) on MMP-2 was 4600 nM; on MMP-13 it was 2200 nM; against MMP-14 it was more than 40 µM; on MMP-8, 14 µM.
The matching figures for `O=C(CC(CCn1nnc2ccccc2c1=O)C(=O)O)c1cc2cc(OCC3CCOCC3)ccc2o1` (racemic) [Example 5, (+/−)-4-Oxo-2-[2-(4-oxo-1,2,3-benzotriazin-3(4H)-yl)ethyl]-4-[5-(tetrahydro-2H-pyran-4-ylmethoxy)-1-benzofur-2-yl]butanoic acid]: 5000 nM, 13000 nM, 34 µM and 7.7 µM.
The matching figures for `O=C(O)[C@@H]1[C@@H](Cn2nnc3ccc(C(F)(F)F)cc3c2=O)CC[C@H]1C(=O)c1cc2cc(OCCc3ccccc3)ccc2o1` (single isomer, unassigned; enantiomer 2) [Example 159, (+)-(1RS,2SR,5RS)-2-{[4-Oxo-6-(trifluoromethyl)-1,2,3-benzotriazin-3(4H)-yl]methyl}-5-{[5-(2-phenylethoxy)-1-benzofur-2-yl]carbonyl}cyclopentanecarboxylic acid (enantiomer 2)]: 1700 nM, 660 nM, 2.6 µM and 0.31 µM.
The matching figures for `O=C(CC(CCn1nnc2ccccc2c1=O)C(=O)O)c1cc2cc(OCc3cccc(Cl)c3)ccc2o1` (racemic) [Example 50, (+/−)-4-{5-[(3-Chlorobenzyl)oxy]-1-benzofur-2-yl}-4-oxo-2-[2-(4-oxo-1,2,3-benzotriazin-3(4H)-yl)ethyl]butanoic acid]: 3800 nM, 4000 nM, more than 40 µM and 36 µM.
`O=C(CC(CCn1nnc2ccccc2c1=O)C(=O)O)c1coc2cc(OCC3CCCCC3)ccc12` (single isomer, unassigned; (+)) [Example 82, (+)-4-[6-(Cyclohexylmethoxy)-1-benzofur-3-yl]-4-oxo-2-[2-(4-oxo-1,2,3-benzotriazin-3(4H)-yl)ethyl]butanoic acid]: the IC50 against MMP-2 turned out to be 170 nM; against MMP-13, 1300 nM; against MMP-14, 2.5 µM; at MMP-8, 0.58 µM.
The matching figures for `O=C(CC(CCn1nnc2ccccc2c1=O)C(=O)O)c1noc2cc(OCc3cccnc3)ccc12` (racemic) [Example 148, (+/−)-4-Oxo-2-[2-(4-oxo-1,2,3-benzotriazin-3(4H)-yl)ethyl]-4-[6-(pyridin-3-ylmethoxy)-1,2-benzoxazol-3-yl]butanoic acid]: 270 nM, 500 nM, 8.5 µM and 0.27 µM.
The matching figures for `CCCCCCCOc1ccc2c(C(=O)CC(CCn3nnc4ccccc4c3=O)C(=O)O)coc2c1` (racemic) [Example 101, (+/−)-4-[6-(Heptyloxy)-1-benzofur-3-yl]-4-oxo-2-[2-(4-oxo-1,2,3-benzotriazin-3(4H)-yl)ethyl]butanoic acid]: 660 nM, 1100 nM, more than 40 µM and 12 µM.
The matching figures for `CCCCCOc1ccc2c(C(=O)CC(CCn3nnc4ccccc4c3=O)C(=O)O)coc2c1` (racemic) [Example 89, (+/−)-4-Oxo-2-[2-(4-oxo-1,2,3-benzotriazin-3(4H)-yl)ethyl]-4-[6-(pentyloxy)-1-benzofur-3-yl]butanoic acid]: 290 nM, 670 nM, 13 µM and 6.7 µM.
As to `O=C(CC(CCn1nnc2ccccc2c1=O)C(=O)O)c1coc2cc(OCC3CCCC3)ccc12` (single isomer, unassigned; (+)) [Example 80, (+)-4-[6-(Cyclopentylmethoxy)-1-benzofur-3-yl]-4-oxo-2-[2-(4-oxo-1,2,3-benzotriazin-3(4H)-yl)ethyl]butanoic acid], the IC50 against MMP-2 amounted to 490 nM; against MMP-13, 3600 nM; on MMP-14, 1.9 µM; at MMP-8, 0.44 µM.
As to `O=C(CC(CCn1nnc2ccccc2c1=O)C(=O)O)c1cc2cc(OCCc3ccccc3)ccc2o1` (single isomer, unassigned; (+)) [Example 21, (+)-4-Oxo-2-[2-(4-oxo-1,2,3-benzotriazin-3(4H)-yl)ethyl]-4-[5-(2-phenylethoxy)-1-benzofur-2-yl]butanoic acid], the IC50 against MMP-2 turned out to be 1900 nM; on MMP-13 it was 1800 nM; against MMP-14 it was 30 µM; against MMP-8, 14 µM.
The matching figures for `O=C(CC(CCn1nnc2ccccc2c1=O)C(=O)O)c1cc2ccc(OCC3CC3)cc2s1` (single isomer, unassigned; (+)) [Example 112, (+)-4-[6-(Cyclopropylmethoxy)-1-benzothiophen-2-yl]-4-oxo-2-[2-(4-oxo-1,2,3-benzotriazin-3(4H)-yl)ethyl]butanoic acid]: 220 nM, 1300 nM, 2.8 µM and 0.24 µM.
The matching figures for `O=C(CC(CCn1nnc2ccc(C(F)(F)F)cc2c1=O)C(=O)O)c1noc2cc(OCc3ccccc3)ccc12` (racemic) [Example 154, (+/−)-4-[6-(Benzyloxy)-1,2-benzoxazol-3-yl]-4-oxo-2-{2-[4-oxo-6-(trifluoromethyl)-1,2,3-benzotriazin-3(4H)-yl]ethyl}butanoic acid]: 5600 nM, 2300 nM, 26 µM and 0.97 µM.

As usually defined, the IC50 is the concentration that inhibits the measured activity by half.
